Data from patent US8114904B2, “Luminescence quenchers and fluorogenic probes for detection of reactive species” (Versitech Limited & Morningside Ventures Limited, priority 2008, dated 2012).

Experiments:
[1] = system: Murine J744.1 macrophages; experiment: Cell assay: detection of peroxynitrite in living cells by fluorescent microscopy; assay type: cell-based; conditions: for fluorescence observed in the absence of stimulants: J744.1 macrophages incubated with 20 μM probe for 1 hr
Protocol: (§1) Murine J744.1 macrophages (ATCC, USA) were used to investigate the potential of Compound 22 (acetate form of Compound 10) for the detection of peroxynitrite in living cells. J744.1 macrophages were cultured in Dulbecco's Modified Eagle's Medium (DMEM) (Gibco) containing 10% heat-inactivated fetal bovine serum (Gibco) supplemented with 100 U/ml of penicillin and 100 μg/ml streptomycin at 37° C., 5% CO2. They were subcultured by scraping and seeded on six-well plates according to manufacture's instruction. The growth medium was changed every two to three days. Cells were grown to confluence prior to experiment. Murine J744.1 macrophages were incubated with Compound 22 (20 μM) for 1 hr and then washed three times with PBS buffer.
as §1, with “12 and 12a” for “22 (acetate form of Compound 10)”, “12 or 12a” for “22”, “buffer. […] The fluorescence was induced after treatment with LPS (lipopolysaccharide, 1 μg/ml) for 4 hrs (FIG. 9D and FIG. 10B).” for “buffer.”

[2] = UV-visible absorption spectrum; assay type: physicochemical; conditions: 10 μM solution, pH 7.4 0.1 M phosphate buffer, 0.1% DMF
Protocol: Compound 10 obtained in Example 4 was dissolved in pH 7.4 0.1 M phosphate buffer containing 0.1% DMF as cosolvent to form a 10 μM solution.
Compound 12 obtained in Example 5 was dissolved in pH 7.4 0.1 M phosphate buffer containing 0.1% DMF as cosolvent to form a 1 μM solution.
Compound 14 obtained in Example 6 was dissolved in pH 7.4 0.1 M phosphate buffer containing 0.1% DMF as cosolvent to form a 1 μM solution.
Compound 30 obtained in Example 7 was dissolved in pH 7.4 0.1 M phosphate buffer containing 0.1% DMF as cosolvent to form a 10 μM solution. The absorption spectrum of the 10 μM solution of Compound 30 was measured.

[3] = Emission spectra of the probe itself; assay type: physicochemical; conditions: 10 μM, 0.1 M phosphate buffer pH 7.4, excitation 520 nm, Hitachi F7000, 900 V
Protocol: (§2) Compound 10 obtained in Example 4 was dissolved in DMF to a concentration of 10 mM, and then the solution was diluted to 10 μM by 0.1 M phosphate buffer (pH 7.4). The fluorescence spectrum of the 10 μM solution of Compound 10 was measured using a Hitachi F2500 fluorescence spectrometer and the photomultiplier voltage was 700 V. The slit width was 2.5 nm for both excitation and emission. The measurement was carried out at an excitation wavelength of 520 nm. The results shown in FIG. 1 indicate that Compound 10 itself is non-fluorescent.
(§3) Compound 12 obtained in Example 5 was dissolved in DMF to a concentration of 1 mM, and then the solution was diluted to 1 μM by 0.1 M phosphate buffer (pH 7.4). The fluorescence spectrum of the 1 μM solution of Compound 12 was measured using a Hitachi F2500 fluorescence spectrometer and the photomultiplier voltage was 700 V. The slit width was 2.5 nm for both excitation and emission. The measurement was carried out at an excitation wavelength of 515 nm. The results shown in FIG. 4 indicate that Compound 12 itself is non-fluorescent.
as §3, with “Compound 14” for “Compound 12”, “Example 6” for “Example 5”, “FIG. 6” for “FIG. 4”
as §2, with “Compound 30” for “Compound 10”, “Example 7” for “Example 4”, “Hitachi F7000” for “Hitachi F2500”, “was 900” for “was 700”, “nm.” for “nm. The results shown in FIG. 1 indicate that Compound 10 itself is non-fluorescent.”

[4] = Detection of peroxynitrite: fluorescence spectra after addition of peroxynitrite; conditions: 10 μM probe, 0.1 M potassium phosphate buffer pH 7.4, measured after 5 minutes, excitation 520 nm
Protocol: Compound 10 obtained in Example 4 was dissolved in DMF to a concentration of 10 mM, and then the solution was diluted to 10μM by 0.1 M potassium phosphate buffer (pH 7.4). Peroxynitrite solution in 0.1 M NaOH was prepared by the method of Keith and Powell (Keith, W. G. & Powell, R. E.; Kinetics of decomposition of peroxynitrous acid; J. Chem. Soc. A, 1969, 1, 90), and its concentration in the stock solutions used was estimated by using an extinction coefficient of 1670 cm^−1 (mol/L)^−1 at 302 nm (Hughes and Nicklin; The chemistry of pernitrites. Part I. Kinetics of decomposition of pernitrious acid; J. Chem. Soc. A, 1968, 2, 450-452). Peroxynitrite stock solution was added into the solution of Compound 10 to provide various final concentrations, like 0, 2, 6, 10, 20, 30, 50 100, and 200 μM. Fluorescence spectra of the solutions were measured after 5 minutes under the same conditions as mentioned above.
Compound 12 obtained in Example 5 was dissolved in DMF to a concentration of 1 mM, and then the solution was diluted to 1 μM by 0.1 M potassium phosphate buffer (pH 7.4). Peroxynitrite solution in 0.1 M NaOH was prepared by the method of Keith and Powell (Keith, W. G. & Powell, R. E.; Kinetics of decomposition of peroxynitrous acid; J. Chem. Soc. A, 1969, 1, 90), and its concentration in the stock solutions used was estimated by using an extinction coefficient of 1670 cm^−1 (mol/L)^−1 at 302 nm (Hughes and Nicklin; The chemistry of pernitrites. Part I. Kinetics of decomposition of pernitrious acid; J. Chem. Soc. A, 1968, 2, 450-452). Peroxynitrite stock solution was added into the solution of Compound 12 to provide various final concentrations, like 0, 1, 2, 3, 4, 5, 6, and 7 μM. Fluorescence spectra of the solutions were measured after 5 minutes under the same conditions as mentioned above.
Compound 30 obtained in Example 7 was dissolved in DMF to a concentration of 10 mM, and then the solution was diluted to 10 μM by 0.1 M potassium phosphate buffer (pH 7.4). Peroxynitrite solution in 0.1 M NaOH was prepared by the method of Keith and Powell (Keith, W. G. & Powell, R. E.; Kinetics of decomposition of peroxynitrous acid; J. Chem. Soc. A, 1969, 1, 90), and its concentration in the stock solutions used was estimated by using an extinction coefficient of 1670 cm^−1 (mol/L)^−1 at 302 nm (Hughes and Nicklin; The chemistry of pernitrites. Part I. Kinetics of decomposition of pernitrious acid; J. Chem. Soc. A, 1968, 2, 450-452). Peroxynitrite stock solution was added into the solution of Compound 30 to provide various final concentrations. Fluorescence spectra of the solutions were measured after 5 minutes under the same conditions as mentioned above.

| SMILES | fluorescence after treatment with LPS and IFN-γ ([1]; 20 μM probe 1 hr, LPS 1 μg/ml and IFN-γ 50 ng/ml for 4 hrs) | fluorescence after additional stimulation by PMA ([1]; 20 μM probe 1 hr, LPS and IFN-γ 4 hrs, then PMA 10 nM for half an hour) | fluorescence observed in the absence of stimulants [1] | suitability for detection of peroxynitrite in stimulated macrophages ([1]; stimulated Murine J744.1 macrophages) | fluorescence after treatment with LPS ([1]; 20 μM probe 1 hr, LPS 1 μg/ml for 4 hrs) | absorption maximum [2] | fluorescence of the probe itself [3] | fluorescence intensity after the addition of peroxynitrite [4] |
| --- | --- | --- | --- | --- | --- | --- | --- | --- |
| CC(=O)Oc1cc2c(cc1Cl)C1(OC(=O)c3ccccc31)c1cc(Cl)c(N(C)c3ccc(CCC(=O)C(F)(F)F)cc3)cc1O2 (stereo not drawn) [Compound 22] | induced | strong fluorescence | very weak fluorescence | suitable for the detection of peroxynitrite | – | – | – | – |
| CC(=O)Oc1ccc(N(C)c2ccc3c(c2)Oc2cc(OC(C)=O)ccc2C32OC(=O)c3ccccc32)cc1 (stereo not drawn) [Compound 12a] | – | – | very weak fluorescence | – | induced | – | – | – |
| CN(c1ccc(O)cc1)c1ccc2c(ccc3c(-c4ccccc4C(=O)O)c4cc(Cl)c(=O)cc-4oc32)c1 [Compound 30] | – | – | – | – | – | about 540 nm | may be non-fluorescent | increases significantly |
